The values below come from patent EP0235773A1, “Improved pesticide formulations” (Shell Agrar GmbH & Co. KG, priority 1986, dated 1987).

Counter-ions that a name gives are not always drawn.

The nature of data set [1]: Approximate solubility of solutes in butyrolactone (BLO). The class given is physicochemical. Particulars: solvent BLO; approximately 25-30°C. As for the experimental part: In formulating the solutions of chlorflurenol and solvent, it was necessary to agitate the solution in order to dissolve the chlorflurenol in the BLO, M-Pyrol, or BLO/M-PYROL.
From tests conducted, the following approximate solubilities at temperatures of approximately 25-30°C. were determined.
Technical dicamba acid - 86.9% acid equivalent Technical sodium salt of dicamba acid - 76% acid equivalent Technical chlorflurenol methyl ester - 95-98% total methal esters

For data set [2] the following is noted: cited from earlier work.

Turning to `COc1c(Cl)ccc(Cl)c1C(=O)O` [Technical sodium salt of dicamba], the “Solubility for acid Equivalent Concentration” value in data set [1] is “Less than 1%”.
Turning to `COC(=O)C1(O)c2ccccc2-c2ccc(Cl)cc21` (stereo not drawn) [Technical chlorflurenol methy ester, chlorflurenol methyl ester], the water solubility in data set [2] is on record as 0.0018 grams/100 grams water. Also, the “Solubility for acid Equivalent Concentration” value in data set [1] was “approximately 25%”.
